# Experimental data taken from US20240277716A1, “Suppressive T Cell Populations and Methods of Cancer Immunotherapy” (La Jolla Institute for Immunology, priority 2021, published 2024).
# What was measured:
# [1] = tested on: patients with resectable head and neck squamous cell carcinoma (HNSCC); type: in vivo, human
# Text: PI3Kδ inhibition causes irAEs. To evaluate the potential for PI3Kδ inhibitors as immunotherapeutic agents in human solid cancers, the inventors administered the PI3Kδi AMG319 to treatment-naive patients with resectable head and neck squamous cell carcinoma (HNSCC) in a neoadjuvant, double-blind, placebo-controlled randomized phase II trial. The inventors measured target inhibition (pAKT levels in B cells and drug levels to verify drug administration. Thirty-three patients were randomized in a 2:1 ratio (AMG319:Placebo) to the trial and 30 patients received at least one dose of AMG319 or placebo. Fifteen patients received 400 mg daily of AMG319 (range of 7-24 days per patient). Unexpectedly, at the 400 mg dose, 9/15 patients experienced irAEs that lead to withdrawal of treatment. After a formal safety review, 6 additional patients were recruited and treated at a reduced dose of 300 mg per day. Again, 3/6 patients had irAEs that led to discontinuation of treatment. One patient experienced grade 4 colitis after completion of 24 daily doses of AMG319 and eventually required colectomy (FIG. 4A). The most prevalent irAEs were skin rashes (29%; 25% observed in the treatment group and 4% in placebo group), diarrhea (29%; 28% in observed treatment group and 1% in placebo group) and transaminitis (14% all in the treatment group), consistent with a treatment-mediated loss of TREG cells or TREG cell functionality in multiple tissues causing immunopathology.
# Double blind, randomized clinical trial and sample collection. In order to explore the immunomodulatory effects of PI3Kδ inhibition in humans, the inventors conducted a multicenter, placebo-controlled phase II neoadjuvant trial with the PI3Kδi AMG319 in resectable HNSCC, www.clinicaltrialsregister.eu/ctr-search/trial/2014-004388-20/results). All patients have provided written informed consent for participation in the clinical trial. The inventors studied Human Papilloma Virus (HPV)-negative HNSCC, as this cancer type is more prevalent, and because patients with this cancer type have poorer outcomes when compared to HPV-positive HNSCC, likely due to overall lower tumor-infiltrating lymphocyte (TIL) infiltration^31-33. The clinical trial was sponsored by Cancer Research UK Center for Drug Development (CRUKD/15/004) and approved by the Southampton and South West Hampshire Research Ethics Board; the trial EudraCT number is 2014-004388-20. Detailed information about the trial design, randomization procedure, protocol amendments, recruitment data, patient characteristics and adverse events are deposited at www.clinicaltrialsregister.eu/ctr-search/trial/2014-004388-20/results #morelnformationSection and found in the CONSORT checklist. Patients were recruited after initial diagnosis and before definitive surgical treatment; drug treatment or placebo was given for up to 24 or 28 days respectively, prior to resection of tumor. […] The inventors reasoned that high-grade irAEs were unlikely to occur during the shorter treatment duration in the neoadjuvant setting, and therefore selected 400 mg/day as the starting dose. The intended time from initiating treatment with AMG319 or placebo to surgical resection of tumor was up to 4 weeks, with weekly blood draws. The full evaluation of radiological measurements has previously been reported at https://www.clinicaltrialsregister.eu/ctr-search/trial/2014-004388-20/results to the EU Clinical Trials Register in compliance with regulatory requirements. Primary endpoints were safety and assessment of CD8^+ immune infiltrates, secondary endpoints tumor responses and AMG319 pharmacokinetic evaluation (https://www.clinicaltrialsregister.eu/ctr-search/trial/2014-004388-20/results#endPointsSection). The sample size was calculated as follows: in a pilot cohort, the CD8 count in the biopsy taken at diagnosis, and in the resected tissue sample was quantified. […]
# [2] = tested on: tumor-infiltrating TREG cells and CD8+ T cells in HNSCC tumor tissue; experiment: Phase II trial: tumor RNA-seq, sorted CD8+ T cell RNA-seq and FOXP3 immunohistochemistry, pre- vs post-treatment; type: in vivo, human
# Text: Double blind, randomized clinical trial and sample collection. In order to explore the immunomodulatory effects of PI3Kδ inhibition in humans, the inventors conducted a multicenter, placebo-controlled phase II neoadjuvant trial with the PI3Kδi AMG319 in resectable HNSCC, www.clinicaltrialsregister.eu/ctr-search/trial/2014-004388-20/results). All patients have provided written informed consent for participation in the clinical trial. The inventors studied Human Papilloma Virus (HPV)-negative HNSCC, as this cancer type is more prevalent, and because patients with this cancer type have poorer outcomes when compared to HPV-positive HNSCC, likely due to overall lower tumor-infiltrating lymphocyte (TIL) infiltration^31-33. The clinical trial was sponsored by Cancer Research UK Center for Drug Development (CRUKD/15/004) and approved by the Southampton and South West Hampshire Research Ethics Board; the trial EudraCT number is 2014-004388-20. Detailed information about the trial design, randomization procedure, protocol amendments, recruitment data, patient characteristics and adverse events are deposited at www.clinicaltrialsregister.eu/ctr-search/trial/2014-004388-20/results #morelnformationSection and found in the CONSORT checklist. Patients were recruited after initial diagnosis and before definitive surgical treatment; drug treatment or placebo was given for up to 24 or 28 days respectively, prior to resection of tumor. […] The inventors reasoned that high-grade irAEs were unlikely to occur during the shorter treatment duration in the neoadjuvant setting, and therefore selected 400 mg/day as the starting dose. The intended time from initiating treatment with AMG319 or placebo to surgical resection of tumor was up to 4 weeks, with weekly blood draws. The full evaluation of radiological measurements has previously been reported at https://www.clinicaltrialsregister.eu/ctr-search/trial/2014-004388-20/results to the EU Clinical Trials Register in compliance with regulatory requirements. Primary endpoints were safety and assessment of CD8^+ immune infiltrates, secondary endpoints tumor responses and AMG319 pharmacokinetic evaluation (https://www.clinicaltrialsregister.eu/ctr-search/trial/2014-004388-20/results#endPointsSection). The sample size was calculated as follows: in a pilot cohort, the CD8 count in the biopsy taken at diagnosis, and in the resected tissue sample was quantified. The mean value at diagnosis was 25 cells/high power filed (hpf), and this remained almost the same in the resected sample (26 cells/hpf). […] To detect a standardized difference of 0.5 with 80% power and one-sided test of statistical significance of 20%, 36 patients were randomized to AMG319 and 18 to placebo (54 in total). Randomization was at the level of the individual patient, using block randomization with randomly varying block sizes. During the course of the clinical trial the randomization list was held by the unblinded Trial Statistician and within the IWRS. Patients and care providers were blinded to the treatment allocation, and all immunological evaluations were completed by a pathologist and researchers who were blinded to the patient allocation to treatment arms. […] Patients were eligible if they were >18 years, with histologically proven HNSCC for whom surgery was the primary treatment option, with laboratory results within specified ranges. […]
# circulating TREG cells = experiment: Phase II trial: circulating TREG cells; design: species or system human; settings: in vivo
# Text: Double blind, randomized clinical trial and sample collection. In order to explore the immunomodulatory effects of PI3Kδ inhibition in humans, the inventors conducted a multicenter, placebo-controlled phase II neoadjuvant trial with the PI3Kδi AMG319 in resectable HNSCC, www.clinicaltrialsregister.eu/ctr-search/trial/2014-004388-20/results). All patients have provided written informed consent for participation in the clinical trial. The inventors studied Human Papilloma Virus (HPV)-negative HNSCC, as this cancer type is more prevalent, and because patients with this cancer type have poorer outcomes when compared to HPV-positive HNSCC, likely due to overall lower tumor-infiltrating lymphocyte (TIL) infiltration^31-33. The clinical trial was sponsored by Cancer Research UK Center for Drug Development (CRUKD/15/004) and approved by the Southampton and South West Hampshire Research Ethics Board; the trial EudraCT number is 2014-004388-20. […] The sample size was calculated as follows: in a pilot cohort, the CD8 count in the biopsy taken at diagnosis, and in the resected tissue sample was quantified. […]
# [3] = tested on: heavily-pretreated patients with either CLL or non-Hodgkin lymphoma; settings: cited from earlier work
smiles,measurement,setting,value
C[C@H](Nc1ncnc2[nH]cnc12)c1cc2ccc(F)cc2nc1-c1ccccn1 [AMG319],difference in measured tumor volumes between the study arms,"[1]; 23 evaluable patients, AMG319 vs placebo",did not observe any significant differences
same,patients with partial responses (PR),"[1]; AMG319-treated, all also grade 3/4 irAEs",Two
same,patients with complete pathological response,"[1]; AMG319-treated, also grade 3/4 irAEs",one
same,diarrhea observed in the treatment group,"[1]; human, in vivo",28%
same,median time to onset of irAEs,"[1]; human, in vivo",9 days
same,skin rashes observed in the treatment group,"[1]; human, in vivo",25%
same,transaminitis,"[1]; human, in vivo",14%
same,"patients with grade 4 colitis, eventually required colectomy",[1]; in vivo,One
same,"expression of IFNG, GZMB and PRF1 in sorted tumor-infiltrating CD8+ T cells","[2]; post-treatment samples, bulk RNA-seq",higher expression
same,"differentially expressed genes, sorted CD8+ T cells",[2]; post-treatment vs remaining samples,455 genes
same,FOXP3 transcript levels in the tumor samples,[2]; pre- vs post-treatment,significant reduction
same,"differentially-expressed genes, whole tumor RNA-seq",[2]; pre- vs post-treatment tumor samples,93 DEGs
same,"intratumoral TREG cells (FOXP3+ cells, immunohistochemistry)",[2]; short interval between stopping treatment and assessment,significantly reduced
same,activated circulating TREG cells,circulating TREG cells,significant increase
same,nodal regression,[3]; daily dosing with 400 mg,> 50%
same,target inhibition (BCR-induced pAKT in ex vivo IgD-stimulated CLL samples),[3]; daily dosing with 400 mg,near-complete target inhibition
same,maximally-tolerated dose,[3]; doses of up to 400 mg explored,without reaching a maximally-tolerated dose
same,mean half-life in plasma,[3]; human plasma,3.8 to 6.6 h
same,occurrence of irAE at grade 3 or above (CTC),[3]; in vivo,after days 40 and 60
